Assay results: patent US20250290080A1, “METHODS TO PREVENT RAPID SILENCING OF GENES IN PLURIPOTENT STEM CELLS” (FUJIFILM Cellular Dynamics, Inc., priority 2021, published 2025)
Numbering of substitutions follows the chain as printed. “Also recorded” adds a separate entry of the source.

B1: CpG-free PuroRv1: CpG-free puromycin resistance gene sequence, SEQ ID NO:15 (nucleic acid)
DNA: ATGACTGAATACAAACCAACTGTTAGACTGGCAACTAGAGATGATGTTCCAAGAGCAGTTAGAACCCTGGCTGCTGCATTTGCTGACTACCCTGCAACCAGACACACTGTGGACCCAGACAGACACATTGAAAGAGTGACTGAACTGCAGGAGCTGTTCCTGACCAGAGTGGGCCTGGACATTGGCAAAGTGTGGGTGGCAGATGATGGTGCTGCTGTGGCAGTGTGGACCACCCCTGAATCTGTTGAAGCTGGTGCAGTGTTTGCTGAGATTGGCCCAAGAATGGCAGAACTGTCTGGCAGCAGACTGGCAGCACAACAGCAGATGGAAGGTCTGCTGGCACCACACAGACCAAAAGAACCTGCTTGGTTCCTGGCAACTGTGGGTGTGAGCCCTGACCACCAGGGTAAGGGCCTGGGCTCTGCAGTGGTGCTGCCTGGTGTGGAAGCAGCTGAAAGAGCAGGTGTGCCTGCTTTCCTGGAGACCTCAGCTCCAAGAAACCTGCCTTTCTATGAAAGACTGGGCTTCACTGTGACTGCTGATGTGGAAGTGCCAGAAGGCCCAAGAACTTGGTGCATGACTAGAAAACCAGGTGCTTGATAATGA
modifications: misc_feature 1..606 Synthetic promotor sequence
B2: PuroRv2: CpG-free puromycin resistance gene version 2, SEQ ID NO:16 (nucleic acid)
DNA: B1 DNA with G550T, T551G, G552C, G556A, A558G, G560A, C562A, C563G, A565G, G566C
modifications: misc_feature 1..606 Synthetic promotor sequence

Key:
[1] = tested on: iPSC line 01279.107; test: Luciferase expression during transient transfection of promoter-pGL3 plasmids (Dual-Luciferase Reporter Assay); assay type: cell-based, human; conditions: assayed one day later
Text: Promoters cloned: The following promoters were identified as being likely candidates for constitutive expression in all cell types. Some were cloned from existing plasmids (CAG, PGK, UBC-version1, EEF1A1, ACTB). […] The new promoters include RPS19, UBA52, HSP90AB1, an enlarged region of UBC (version 2), UBB, RPSA, NACA, and COX8A. Sequences were cloned into the pGL3 plasmid vector (replacing the SV40 promoter between MluI and NcoI restriction sites) to enable a comparison of promoter strength when driving the luciferase reporter gene.
Luciferase expression during transient transfection: Transient transfection was performed of the promoter-pGL3 plasmids into iPSCs to determine the strength of expression. Using a 96wp format, 50 uL of E8 media+10 uM blebbistatin was added to each well. Each plasmid was assayed in triplicate by adding 16.5 uL of the following reagent preparation. One well of a 6wp of iPSC line 01279.107 was harvested using Accutase, resuspended in 3.5 mL E8 media+10 uM blebbistatin, and 50 uL was added to each well. One day later the cells were assayed using the Dual-Luciferase Reporter Assay System (Promega).
Expression values at or above the level of the PGK promoter were desired so RPS19, UBA52, HSP90AB1, and UBC were selected for further study.

[2] = tested on: iPSC line 01279.107; test: ZsGreen expression in engineered iPSC lines in long-term culture, flow cytometry; assay type: cell-based, human; conditions: for ZsGreen expression in iPSC over time: culture up to seven months, E8 media/vitronectin
Text: ZsGreen Constructs Integrated at the AAVS1 Safe Harbor Locus: To examine longer term expression driven by the candidate promoters in a chromosomal context, they were cloned into plasmids controlling ZsGreen fluorescent protein and targeted to the AAVS1 safe harbor locus on chromosome 19 in human iPSC (plasmid design is shown below using the CAG promoter as an example). […] Correctly targeted heterozygous clones were expanded.
Genomic Loci Suitable for Tagging to Yield Constitutive Expression: In addition to promoter-driven expression from a safe harbor, specific genes expressed in most cell-types can be tagged with a reporter gene to give constitutive expression. The genes HSP90AB1, ACTB, CTNNB1, and MYL6 were chosen for evaluation and were tagged with ZsGreen and an F2A cleavage sequence via TALEN-mediated gene editing. Correctly targeted heterozygous clones were expanded.
ZsGreen expression in iPSC: Engineered iPSC lines expressing ZsGreen fluorescent protein were maintained in culture for up to seven months (E8 media/vitronectin coated plates) and periodically checked for green expression using flow cytometry on an Accuri C6 instrument (BD).

[3] = tested on: iPSC-derived neuronal cells; test: ZsGreen expression after neuronal differentiation protocol, day 21 flow cytometry; assay type: cell-based, human; conditions: day 21 of differentiation
Text: (§1) Differentiation: In order to determine the stability of expression post-differentiation, the engineered lines were subjected to differentiation protocols to direct them toward either neuronal or cardiac cell types.

[4] = tested on: iPSC-derived cardiac cells; test: ZsGreen expression after cardiac differentiation protocol, day 21 flow cytometry; assay type: cell-based, human; conditions: day 21 of differentiation
Text: as §1

[5] = tested on: silenced CpG-free AcGFP1 clones; test: NaBut treatment of silenced CpG-free AcGFP1 clones, % GFP expression by flow cytometry; assay type: cell-based
Method: FIGS. 5A-5B: Silenced transgene be reactivated with NaBut treatment. A small number of cells were silenced in the CpG-free AcGPF1 cultures (<3% of cells, FIG. 3A). These silenced cells were single cell sorted and expanded to further investigate their silencing and research methods for overcoming the silencing. Two months after sorting for no GFP expression, silenced CpG-free AcGFP1 clones were treated with 1 mM, 0.5 mM, or 1 μM of NaBut. […] After a successful pilot experiment, the duration of NaBut treatment was increased to 46 days with NaBut treatment doses of 0.25 mM and 0.5 mM and the GFP expression levels were monitored over time by fluorescent microscopy and flow cytometry. The initial results were confirmed (FIGS. 5A and 5B, dark blue bar: day 8 of treatment).
However, after 5 months, a small percentage of cells were detected with no GFP expression (3%) even though the CpGs had been removed from AcGFP1. To investigate this population, clones were isolated by single cell sorting for no GFP expression. The cells were treated with sodium butyrate (NaBut), a histone deacetylase (HDAC) inhibitor capable of removing chromatin structure and inducing demethylation.

[6] = tested on: iPSCs; test: Fluorescent protein transgene expression over time in engineered iPSCs (PPP1R12C/AAVS1 locus); assay type: cell-based
Text: FIGS. 1A-1D: ZsGreen expression driven by EEF1A1p is mottled in iPSCs. iPSCs 01278.103 (FIG. 1A, 1B) and 01279.107 (FIG. 1C, 1D) were engineered with EEF1A1p-ZsGreen at the PPP1R12C locus. Brightfield and Fluorescence (GFP) microscopy were used to capture the GFP expression in the cells 11 passages post-engineering (FIGS. 1A-1B) or 18 passages post-engineering (FIGS. 1C-1D).
The percent GFP expression in five clones targeted with EEF1A1p-CpG-free-AcGFP1 (FIG. 3A) and nine clones targeted with EEF1A1p-AcGFP1 (FIG. 3B) at the AAVS1 locus was monitored overtime.
FIGS. 4A-4C: Rapid silencing of AcGFP1 in iPSCs. Depiction of engineering iPSCs at the PPP1R12C locus (AAVS1 safe harbor) with three cassettes EEF1A1p-mRFP1+PGKp-Puro, EEF1A1p-AcGFP1 or EEF1A1p-CpG-Free AcGFP1. Noted within the figure are the engineered iPSC ID numbers for cell lines 8717 and 9650 which are used in further experiments throughout the document (FIG. 4A). […] After two months in culture, AcGFP1 engineered iPSCs were bulk sorted for AcGFP1 expression. Brightfield and Fluorescence (GFP) microscopy was used to capture the GFP expression in the cells 12 days post-sorting (FIG. 4B) or 23 days post-sorting (FIG. 4C).
The EEF1A1 promoter was used for expression of AcGFP1 in iPSCs at the PPP1R12C locus.

[7] = tested on: iPSC line 2.038; test: Drug resistance of iPSC line 2.038 transfected with WT PuroR vs. CpG-free PuroR plasmids; assay type: cell-based; conditions: cassette introduced into iPSCs by electroporation
Text: The CpG-free PuroR cassette was introduced into iPSCs by electroporation.

Row | Molecule | ZsGreen expression in iPSC over time [2] | ZsGreen fluorescence after neuronal differentiation [3] | ZsGreen expression after cardiac differentiation [4] | further results
1 | HSP90AB1del400 promoter: HSP90AB1 promoter with 417 bp deletion between two ClaI sites, SEQ ID NO:4 | stable iPSC expression over four months | many cells with diminishing fluorescence | varying amounts of expression silencing | Normalized luciferase (Firefly/Renilla ratio, normalized to EEF1A1=100%) [1]: around 66%
2 | HSP90AB1 promoter: HSP90AB1 promoter, SEQ ID NO:5 | – | – | – | Normalized luciferase (Firefly/Renilla ratio, normalized to EEF1A1=100%) [1]: ~75%
3 | RPS19: RPS19 promoter, SEQ ID NO:2 | stable iPSC expression over four months | tight and stable expression | varying amounts of expression silencing | ZsGreen expression in iPSC at seven months ([2]; out to seven months in culture): some silencing
4 | UBA52: UBA52 promoter, SEQ ID NO:3 | stable iPSC expression over four months | tight and stable expression | tight and stable expression | –
5 | CCCC(=O)[O-].[Na+] [NaBut, sodium butyrate] | – | – | – | effect on GFP expression levels over time ([5]; 0.25 mM and 0.5 mM NaBut, 46 days): dose dependent effect; reactivation of GFP expression ([5]; 1 mM, 0.5 mM, or 1 μM NaBut, nine days, flow cytometry): dose dependent reactivation; also recorded: dose-dependent reactivation
6 | AcGFP1: Aequorea coerulescens green fluorescence protein DNA sequence, SEQ ID NO:13 [reference compound] | – | – | – | cells with no GFP expression (silenced) ([6]; CpG-free AcGFP1 cultures, after 5 months): 3%; stability of fluorescent protein expression over time ([6]; EEF1A1 promoter, PPP1R12C (AAVS1) locus, iPSCs in culture): not maintained overtime; also recorded: did not retain consistent expression
7 | B1 | – | – | – | drug resistance conferred [7]: capable of conferring drug resistance
8 | B2 | – | – | – | drug resistance conferred [7]: capable of conferring drug resistance
